Laboratory results reported in ChEMBL document CHEMBL1201862, “PubChem BioAssay data set” (2004).
Where a name gives a salt, the structure may show the parent alone. The source made the active and inactive calls.

Tests used:
[1] = target: Voltage-gated inwardly rectifying potassium channel KCNH2 (Homo sapiens, UniProt Q12809); conditions: Potency;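 further: confirmatory quantitative high-throughput screen measuring inhibition of hERG channel activity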
[2] = cytotoxicity in HEK-293T cells, dose response, cytotoxicity control for BCR NF-kB inhibitor project, luminescence, B-cell screen hits (AID 489021); assay type: functional, cell-based;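 further: HEK-293T cells carrying an NF-kB luciferase reporter; cells exposed to compound for about 14 hours before viability readout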
Paired box protein Pax-8 = Paired box protein Pax-8 (Homo sapiens, UniProt Q06710); test: inhibitors of PAX8-driven TPO luciferase reporter, dose response, RMG-I cells, cherry-pick (AID 687027); assay type: functional, cell-based;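 further: luciferase reporter driven by Pax8 target thyroperoxidase promoter measured by SteadyGlo luminescence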
Chain of Paired box protein Pax-8 (Q06710 whole entry): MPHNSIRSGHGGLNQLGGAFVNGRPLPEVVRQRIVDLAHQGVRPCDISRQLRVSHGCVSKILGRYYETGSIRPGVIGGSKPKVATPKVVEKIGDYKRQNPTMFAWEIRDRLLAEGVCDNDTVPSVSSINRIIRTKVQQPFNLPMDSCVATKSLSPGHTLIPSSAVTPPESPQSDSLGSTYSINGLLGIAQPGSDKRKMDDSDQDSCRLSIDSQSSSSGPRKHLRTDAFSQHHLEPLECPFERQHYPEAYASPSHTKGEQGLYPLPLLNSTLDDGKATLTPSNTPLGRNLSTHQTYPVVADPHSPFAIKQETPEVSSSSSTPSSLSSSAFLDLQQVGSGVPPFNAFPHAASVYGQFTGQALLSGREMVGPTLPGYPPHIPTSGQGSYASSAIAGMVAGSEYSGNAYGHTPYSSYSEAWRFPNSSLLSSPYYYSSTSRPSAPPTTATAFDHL

cells [3] = assay type: functional, cell-based
[4] = inhibitors of intracellular T. cruzi replication, confirmation, NIH3T3 host cells, beta-gal luminescence (AID 2044); assay type: functional, cell-based;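 further: intracellular parasites grown in NIH/3T3 mouse fibroblasts as host cells; luminescent beta-galactosidase reporter signal from transgenic T. cruzi replicating inside host cells; inhibitors lower the luminescence signal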
cells [5] = assay type: functional, cell-based; remark: listed apart in the source
[6] = cytotoxicity toward NIH3T3 fibroblasts, dose response, counter-screen, cell-based, ATP luminescence, mouse fibroblasts (AID 2010); assay type: functional;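 further: cells exposed to compound for about 90 hours before reading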
Nonstructural protein 1 = Nonstructural protein 1 (Influenza A virus, UniProt Q194T2); assay type: functional, Influenza A virus (A/California/07/2009(H1N1))
Chain of Nonstructural protein 1 (Q194T2 whole entry): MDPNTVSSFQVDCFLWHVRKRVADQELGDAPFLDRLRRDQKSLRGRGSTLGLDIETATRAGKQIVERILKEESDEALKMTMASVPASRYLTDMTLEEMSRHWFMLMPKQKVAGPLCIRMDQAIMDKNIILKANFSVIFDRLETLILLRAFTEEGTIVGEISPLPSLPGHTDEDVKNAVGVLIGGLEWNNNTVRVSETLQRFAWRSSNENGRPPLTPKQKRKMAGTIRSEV

[7] = target: T1, Microphthalmia-associated transcription factor (Homo sapiens, UniProt O75030); test: TRPM1 promoter luciferase signal decrease, dose response, MITF inhibitor project, cell-based, SK-MEL-5, cherry-picked, set 3 (AID 493073); assay type: functional
T1 sequence (O75030 whole entry): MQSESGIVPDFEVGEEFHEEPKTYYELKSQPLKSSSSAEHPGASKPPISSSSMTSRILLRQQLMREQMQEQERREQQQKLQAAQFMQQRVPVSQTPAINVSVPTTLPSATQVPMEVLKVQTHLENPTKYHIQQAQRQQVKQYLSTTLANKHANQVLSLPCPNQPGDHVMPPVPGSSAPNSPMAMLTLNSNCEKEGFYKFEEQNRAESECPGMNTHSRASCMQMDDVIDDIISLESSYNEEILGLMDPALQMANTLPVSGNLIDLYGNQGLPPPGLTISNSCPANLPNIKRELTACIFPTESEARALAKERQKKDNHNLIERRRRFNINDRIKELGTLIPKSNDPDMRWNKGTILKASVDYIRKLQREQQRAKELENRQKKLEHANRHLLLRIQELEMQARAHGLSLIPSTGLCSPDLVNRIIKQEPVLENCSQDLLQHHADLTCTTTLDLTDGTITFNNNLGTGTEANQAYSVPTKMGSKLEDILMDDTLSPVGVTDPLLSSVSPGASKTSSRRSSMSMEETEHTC

INS1 = test: beta cell apoptosis inhibitors, cytokine rescue, dose response, luminescence, retest (AID 449756); assay type: functional, cell-based; conditions: Rattus norvegicus;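 further: cell death triggered by IL-1 beta plus TNF-alpha plus IFN-gamma mixture; protective hits raise ATP signal compared with cytokine alone wells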
H9c2 = test: cells; assay type: functional, cell-based; conditions: Rattus norvegicus, H9c2, Myocardium
[8] = Shn3 3'UTR reporter inhibitors, dose response, cell-based, Clone20 osteoblasts, firefly luciferase, cherry-picked (AID 624132); assay type: functional;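 further: firefly luciferase luminescence from reporter carrying the Shn3 3'UTR in osteoblasts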
[9] = HepG2 cell cytotoxicity, dose response, cytotoxicity control for Shn3 inhibitor project, CellTiter-Glo, cherry-picked (AID 624134); assay type: functional, cell-based
[10] = control 3'UTR Renilla luciferase suppression, dose response, counter-screen for Shn3 inhibitor project, cell-based, Clone20-Shn3RL, cherry-picked (AID 624133); assay type: functional
[11] = target: Protein-tyrosine kinase 2-beta (Homo sapiens, UniProt Q14289);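 further: potency of inhibitors of PYK2 kinase phosphorylation of poly-GT substrate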
Chain of Protein-tyrosine kinase 2-beta (Q14289 whole entry): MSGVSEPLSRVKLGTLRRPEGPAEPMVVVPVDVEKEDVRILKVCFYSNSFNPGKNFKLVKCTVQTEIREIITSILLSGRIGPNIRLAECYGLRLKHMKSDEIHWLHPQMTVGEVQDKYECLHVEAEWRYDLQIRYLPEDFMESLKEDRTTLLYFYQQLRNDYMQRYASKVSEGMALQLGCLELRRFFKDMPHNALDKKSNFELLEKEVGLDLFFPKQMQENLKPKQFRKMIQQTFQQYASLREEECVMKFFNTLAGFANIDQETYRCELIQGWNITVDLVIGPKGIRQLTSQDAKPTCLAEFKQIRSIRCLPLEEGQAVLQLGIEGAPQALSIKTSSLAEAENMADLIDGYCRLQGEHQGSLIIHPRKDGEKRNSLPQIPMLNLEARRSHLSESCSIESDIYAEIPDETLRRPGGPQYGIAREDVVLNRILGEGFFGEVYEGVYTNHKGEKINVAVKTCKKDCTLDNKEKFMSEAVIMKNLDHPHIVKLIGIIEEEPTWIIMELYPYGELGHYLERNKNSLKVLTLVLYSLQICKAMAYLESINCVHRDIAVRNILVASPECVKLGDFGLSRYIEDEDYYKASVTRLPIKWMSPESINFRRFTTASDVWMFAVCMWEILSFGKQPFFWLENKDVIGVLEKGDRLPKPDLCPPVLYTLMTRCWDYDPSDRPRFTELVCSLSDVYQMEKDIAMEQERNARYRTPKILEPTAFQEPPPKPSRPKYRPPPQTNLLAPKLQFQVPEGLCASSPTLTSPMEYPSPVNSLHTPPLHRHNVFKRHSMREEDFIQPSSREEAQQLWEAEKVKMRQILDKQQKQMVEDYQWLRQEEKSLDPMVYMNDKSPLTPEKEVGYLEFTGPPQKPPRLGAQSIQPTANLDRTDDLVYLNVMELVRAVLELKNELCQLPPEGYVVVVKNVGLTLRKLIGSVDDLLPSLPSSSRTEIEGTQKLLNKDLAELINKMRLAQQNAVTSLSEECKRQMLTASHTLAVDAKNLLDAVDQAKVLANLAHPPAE

[12] = target: T2, Replicative DNA helicase DnaB (Mycobacterium tuberculosis, UniProt P9WMR3); test: DnaB intein splicing inhibitors, dose response, biochemical, cell-free fluorescence (AID 449749); assay type: functional
T2 sequence (P9WMR3 whole entry): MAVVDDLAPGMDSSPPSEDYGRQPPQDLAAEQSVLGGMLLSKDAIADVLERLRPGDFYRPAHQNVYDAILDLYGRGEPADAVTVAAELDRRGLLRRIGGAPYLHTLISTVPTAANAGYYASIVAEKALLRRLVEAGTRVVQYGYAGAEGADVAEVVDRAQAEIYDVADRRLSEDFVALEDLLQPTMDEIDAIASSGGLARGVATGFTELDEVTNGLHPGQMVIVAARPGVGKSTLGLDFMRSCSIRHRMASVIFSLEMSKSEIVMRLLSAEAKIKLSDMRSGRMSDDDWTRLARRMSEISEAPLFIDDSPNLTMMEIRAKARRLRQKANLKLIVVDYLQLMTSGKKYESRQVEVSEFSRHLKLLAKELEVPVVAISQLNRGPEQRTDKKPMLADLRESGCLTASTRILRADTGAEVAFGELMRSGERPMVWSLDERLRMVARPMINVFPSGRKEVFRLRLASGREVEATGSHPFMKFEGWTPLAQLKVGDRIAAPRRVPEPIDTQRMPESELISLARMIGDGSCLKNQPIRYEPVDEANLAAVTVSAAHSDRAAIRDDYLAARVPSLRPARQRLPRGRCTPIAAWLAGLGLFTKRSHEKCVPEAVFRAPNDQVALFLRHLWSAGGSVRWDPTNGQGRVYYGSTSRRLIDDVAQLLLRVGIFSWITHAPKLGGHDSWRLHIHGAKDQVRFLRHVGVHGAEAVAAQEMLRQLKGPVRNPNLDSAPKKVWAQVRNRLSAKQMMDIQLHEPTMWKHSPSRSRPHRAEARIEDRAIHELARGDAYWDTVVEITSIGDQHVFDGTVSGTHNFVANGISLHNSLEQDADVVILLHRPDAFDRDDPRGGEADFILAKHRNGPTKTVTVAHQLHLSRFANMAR

Protein RecA = target: T3, Protein RecA (Mycobacterium tuberculosis, UniProt P9WHJ3); test: Fluorescence Cell-Free Homogeneous Dose Retest to Identify Inhibitors of RecA-Intein Splicing Activity. [Related pubchem assays (depositor defined):AID2097, AID2223, AID489010, AID492950]; assay type: functional
T3 sequence (P9WHJ3 whole entry): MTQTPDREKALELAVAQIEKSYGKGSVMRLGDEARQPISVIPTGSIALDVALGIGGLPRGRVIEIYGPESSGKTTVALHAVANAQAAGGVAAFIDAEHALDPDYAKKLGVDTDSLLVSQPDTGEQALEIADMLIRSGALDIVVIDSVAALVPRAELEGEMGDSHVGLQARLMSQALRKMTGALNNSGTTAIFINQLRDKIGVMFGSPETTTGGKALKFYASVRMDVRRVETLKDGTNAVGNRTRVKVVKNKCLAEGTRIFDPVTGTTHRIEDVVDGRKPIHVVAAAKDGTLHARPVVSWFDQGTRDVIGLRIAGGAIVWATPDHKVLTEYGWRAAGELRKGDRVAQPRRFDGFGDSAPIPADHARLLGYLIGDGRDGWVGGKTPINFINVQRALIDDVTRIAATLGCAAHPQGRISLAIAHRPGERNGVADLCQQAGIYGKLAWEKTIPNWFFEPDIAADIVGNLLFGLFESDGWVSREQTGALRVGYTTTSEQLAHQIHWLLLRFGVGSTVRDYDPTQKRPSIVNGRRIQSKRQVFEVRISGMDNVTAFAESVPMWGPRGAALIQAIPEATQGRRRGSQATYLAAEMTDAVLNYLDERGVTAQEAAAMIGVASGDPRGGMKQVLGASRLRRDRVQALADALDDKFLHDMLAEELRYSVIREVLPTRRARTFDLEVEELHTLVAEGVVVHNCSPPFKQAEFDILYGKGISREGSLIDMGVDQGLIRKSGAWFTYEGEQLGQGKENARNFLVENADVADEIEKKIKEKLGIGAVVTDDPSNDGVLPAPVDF

[13] = THP-1 cell cytotoxicity, dose response, cytotoxicity control for Vif-APOBEC3G degradation inhibitor project, THP-1 cells (AID 1117359); assay type: functional; conditions: Human immunodeficiency virus 1, THP-1
[14] = M. tuberculosis H37Rv growth inhibitors, H37Rv strain (AID 1626); assay type: functional
[15] = growth suppression of PTEN-null colon cells, dose response, cell-based, HCT116 PTEN knockout (AID 1047); assay type: functional;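 further: HCT116 colon tumor cells with PTEN knocked out; cells exposed to compound for 60 hours before readout; potency for loss of cell viability measured by luminescence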
[16] = growth suppression of beta-catenin-knockout colon cells, dose response, cell-based, HCT116, human colon tumor (AID 1045); assay type: functional;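 further: HCT116 colon tumor cells with beta catenin knocked out; cells exposed to compound for 60 hours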
[17] = Luminescence Cell-Based Dose Retest to Confirm Inhibitors of Cancer Stem Cells. [Related pubchem assays (depositor defined):AID2717, AID2721]; assay type: functional; conditions: Homo sapiens
[18] = target: T4, Heat shock factor protein 1 (Mus musculus, UniProt P38532); test: HSF1 potentiators in luciferase reporter cells, confirmation, cell-based, NIH3T3, luminescence, dose retest (AID 435004); assay type: functional;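 further: stress induced by proteasome inhibitor MG132 added 30 min after compound; luciferase reporter driven by HSF1 response element in NIH3T3 cells; actives raise luminescence as potentiators of the MG132 stress response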
T4 sequence (P38532 whole entry): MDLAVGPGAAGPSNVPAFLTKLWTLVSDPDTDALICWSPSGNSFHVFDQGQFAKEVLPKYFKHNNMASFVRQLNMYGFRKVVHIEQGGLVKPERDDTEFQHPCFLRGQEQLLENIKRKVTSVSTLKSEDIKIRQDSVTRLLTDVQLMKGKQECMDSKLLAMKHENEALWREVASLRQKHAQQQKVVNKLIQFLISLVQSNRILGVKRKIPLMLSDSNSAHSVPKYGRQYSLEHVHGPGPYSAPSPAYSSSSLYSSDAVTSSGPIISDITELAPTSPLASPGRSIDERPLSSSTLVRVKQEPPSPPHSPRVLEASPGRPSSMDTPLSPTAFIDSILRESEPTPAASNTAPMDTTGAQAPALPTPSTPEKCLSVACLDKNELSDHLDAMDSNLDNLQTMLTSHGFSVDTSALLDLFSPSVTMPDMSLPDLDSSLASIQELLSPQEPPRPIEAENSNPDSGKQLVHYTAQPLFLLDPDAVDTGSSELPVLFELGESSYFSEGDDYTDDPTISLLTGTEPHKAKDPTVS

[19] = target: FAD-linked sulfhydryl oxidase ALR (Homo sapiens, UniProt P55789); test: inhibitors of human ALR sulfhydryl oxidase, dose response, biochemical, H2O2 detection, luminescence, cherry-pick (AID 493248)
Chain of FAD-linked sulfhydryl oxidase ALR (P55789 whole entry): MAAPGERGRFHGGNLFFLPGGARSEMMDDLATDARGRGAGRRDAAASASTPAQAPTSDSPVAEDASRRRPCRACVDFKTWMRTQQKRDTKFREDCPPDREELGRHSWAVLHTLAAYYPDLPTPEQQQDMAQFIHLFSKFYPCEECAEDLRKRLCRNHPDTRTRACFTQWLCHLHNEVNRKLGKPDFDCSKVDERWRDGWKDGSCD

[20] = HEp-2 cell cytotoxicity, dose response, cytotoxicity control for RSV inhibitor project, HTS (AID 2410); assay type: functional; conditions: human respiratory syncytial virus
[21] = target: Heat shock protein HSP 90-alpha (Homo sapiens, UniProt P07900); assay type: functional, organism-based
Large T antigen = Large T antigen (Simian virus 40, UniProt P03070); assay type: functional, Betapolyomavirus macacae;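 further: Confirmatory-stage PubChem screen for compounds that inhibit SV40 T antigen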
Chain of Large T antigen (P03070 whole entry): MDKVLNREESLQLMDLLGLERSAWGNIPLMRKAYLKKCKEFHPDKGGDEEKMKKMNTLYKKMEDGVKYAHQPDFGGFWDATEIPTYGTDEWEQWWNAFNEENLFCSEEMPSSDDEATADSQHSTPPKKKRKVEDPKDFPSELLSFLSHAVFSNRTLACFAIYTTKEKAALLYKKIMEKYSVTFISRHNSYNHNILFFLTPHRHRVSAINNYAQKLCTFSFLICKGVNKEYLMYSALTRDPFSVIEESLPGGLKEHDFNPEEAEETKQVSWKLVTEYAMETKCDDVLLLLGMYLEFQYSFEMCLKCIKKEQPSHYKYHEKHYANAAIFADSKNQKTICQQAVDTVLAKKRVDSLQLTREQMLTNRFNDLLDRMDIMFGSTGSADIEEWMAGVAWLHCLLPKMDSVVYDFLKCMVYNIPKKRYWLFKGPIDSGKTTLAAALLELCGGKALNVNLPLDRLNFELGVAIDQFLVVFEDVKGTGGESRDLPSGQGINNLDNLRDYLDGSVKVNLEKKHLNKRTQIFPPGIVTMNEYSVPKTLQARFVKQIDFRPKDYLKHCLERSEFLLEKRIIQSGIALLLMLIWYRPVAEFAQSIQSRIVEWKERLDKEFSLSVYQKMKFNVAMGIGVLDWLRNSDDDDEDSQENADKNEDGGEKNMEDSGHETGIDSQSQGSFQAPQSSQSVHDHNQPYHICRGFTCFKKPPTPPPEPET

[22] = target: T5, Ubiquitin-conjugating enzyme E2 N (Homo sapiens, UniProt P61088); assay type: functional;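 further: Dose-response confirmation in a TR-FRET assay detecting UBC13-driven polyubiquitin chain formation, inhibition measured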
T5 sequence (P61088 whole entry): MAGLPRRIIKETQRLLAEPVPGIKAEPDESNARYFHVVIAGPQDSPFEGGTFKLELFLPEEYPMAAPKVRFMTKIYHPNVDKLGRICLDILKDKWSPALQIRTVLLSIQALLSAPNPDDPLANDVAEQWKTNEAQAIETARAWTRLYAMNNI

Chain of Voltage-gated inwardly rectifying potassium channel KCNH2 (Q12809 whole entry): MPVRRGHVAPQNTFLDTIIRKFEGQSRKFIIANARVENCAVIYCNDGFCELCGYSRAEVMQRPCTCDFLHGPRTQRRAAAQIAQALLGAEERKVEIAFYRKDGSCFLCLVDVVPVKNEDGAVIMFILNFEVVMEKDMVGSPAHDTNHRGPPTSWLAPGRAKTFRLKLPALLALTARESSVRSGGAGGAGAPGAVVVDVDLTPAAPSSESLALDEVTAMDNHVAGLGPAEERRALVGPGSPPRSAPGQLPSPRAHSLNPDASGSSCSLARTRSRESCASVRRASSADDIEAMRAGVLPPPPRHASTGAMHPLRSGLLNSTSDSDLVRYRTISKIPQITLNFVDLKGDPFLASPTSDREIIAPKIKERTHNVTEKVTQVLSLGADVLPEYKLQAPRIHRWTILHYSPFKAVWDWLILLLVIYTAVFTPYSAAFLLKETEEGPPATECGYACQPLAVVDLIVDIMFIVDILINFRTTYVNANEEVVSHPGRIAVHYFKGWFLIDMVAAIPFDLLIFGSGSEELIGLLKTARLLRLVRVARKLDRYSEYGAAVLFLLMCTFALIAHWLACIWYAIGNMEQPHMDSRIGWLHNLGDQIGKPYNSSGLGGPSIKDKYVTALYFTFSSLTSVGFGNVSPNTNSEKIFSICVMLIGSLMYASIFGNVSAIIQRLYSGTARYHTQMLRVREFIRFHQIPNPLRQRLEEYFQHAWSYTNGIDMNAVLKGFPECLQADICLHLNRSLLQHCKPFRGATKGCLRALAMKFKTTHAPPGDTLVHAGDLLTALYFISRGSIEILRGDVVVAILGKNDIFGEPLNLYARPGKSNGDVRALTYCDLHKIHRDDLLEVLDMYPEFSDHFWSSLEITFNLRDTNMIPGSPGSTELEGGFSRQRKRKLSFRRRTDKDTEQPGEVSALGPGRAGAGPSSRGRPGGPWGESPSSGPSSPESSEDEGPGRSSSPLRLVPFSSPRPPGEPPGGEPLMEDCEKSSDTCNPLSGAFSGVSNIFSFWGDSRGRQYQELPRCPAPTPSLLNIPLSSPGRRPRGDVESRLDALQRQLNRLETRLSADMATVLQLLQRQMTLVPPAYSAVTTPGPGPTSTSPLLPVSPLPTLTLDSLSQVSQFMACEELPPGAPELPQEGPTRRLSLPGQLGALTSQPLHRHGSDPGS

## CC1CCN(CC[C@H]2CCCN2S(=O)(=O)c2cccc(O)c2)CC1
[1]
  AC50: 22.4 µM (inconclusive)

## O=C(Nc1cccc(Br)c1)c1ccc2c(c1)SC1=NS(=O)(=O)CCN12
[2]
  IC50: > 80 µM (inactive)
Paired box protein Pax-8
  AC50: 3.32 µM (active)

## O=C(Nc1nc(-c2ccccn2)cs1)c1ccccc1-n1cnnn1
Cells [3]
  EC50: 10.6 µM (active)
[4]
  EC50: 1.93 µM (active)
Cells [5]
  EC50: 64.3 µM (active)
[6]
  EC50: 4.31 µM (active)
Nonstructural protein 1
  IC50: 5.44 µM (active)
[7]
  AC50: 6.96 µM (active)
INS1
  AC50: 1.3 µM (active)
H9c2
  IC50: > 79 µM (inactive)
[8]
  AC50: 1.71 µM (active)
[9]
  AC50: 5.46 µM (active)
[10]
  AC50: 2.75 µM (active)

## COc1cc(C2Nc3ccc4ncccc4c3C3=C2C(=O)CC(C)(C)C3)cc(OC)c1O (stereo unspecified)
[11]
  IC50: 16.4 µM (not active)

## CC(=O)c1cn(CCOc2cc(C)ccc2C)c2ccccc12
[2]
  IC50: > 80 µM (inactive)
INS1
  AC50: 3.62 µM (active)
[8]
  AC50: 1.18 µM (active)
[9]
  AC50: 2.19 µM (active)
[10]
  AC50: 2.03 µM (active)

## CC(C)CC(NC(=O)CCl)c1ccccc1 (stereo unspecified)
[12]
  AC50: 320 µM (active)
Protein RecA
  EC50: 4.29 µM (active)
[13]
  CC50: > 40 µM (active)

## COc1nnc(-c2ccc(N3CCCCC3)c(NC(C)=O)c2)c2ccccc12
[11]
  IC50: > 69.5 µM (not active)

## O=C1CCNc2ccc(-c3ccccc3)cc21
[14]
  IC50: > 100 µM (active)

## COc1cc(/C=C(\C#N)C(=O)NC2CCCCC2C)ccc1OS(=O)(=O)c1ccc(C)cc1 (stereo unspecified)
[14]
  IC50: > 100 µM (active)
[15]
  EC50: 10.7 µM (active)
[16]
  EC50: 9.24 µM (active)
[17]
  AC50: 5.32 µM (active)
[18]
  EC50: 2.17 µM (active)

## CNC(=O)c1cc(Nc2nnc(-c3ccc(O)cc3)c3ccccc23)ccc1OC
[19]
  AC50: 3.86 µM (active)
[2]
  IC50: > 80 µM (inactive)

## CC1CCCCC1NC(=O)/C(C#N)=C/c1ccccc1F (stereo unspecified)
[20]
  CC50: 21.3 µM (active)
[17]
  AC50: 5.53 µM (active)
[7]
  AC50: 14.4 µM (active)
[21]
  AC50: 0.94 µM (active)

## N#Cc1ccccc1COc1ccc(/C=C/C(=O)O)cc1
[2]
  IC50: > 80 µM (inactive)

## COC(=O)c1ccc(NC(=O)CSC2=NCCN2)cc1
[14]
  IC50: > 100 µM (active)

## CCOc1ccc(N2C(=O)c3ccccc3C2=O)cc1
[14]
  IC50: > 100 µM (active)

## Cc1cc2cc3c(N)[nH]nc3nc2cc1C
Large T antigen
  IC50: 30.3 µM (active)
[11]
  IC50: > 69.5 µM (not active)

## Cc1cc(NC(=O)CCCN2C(=O)/C(=C/c3ccccc3Cl)SC2=S)no1
[2]
  IC50: > 80 µM (inactive)

## COc1cc(-c2nc3ccc(N4CCN(C)CC4)cc3[nH]2)cc(OC)c1OC
[22]
  IC50: > 20 µM (inactive)
[2]
  IC50: > 80 µM (inactive)

## NCCc1ccc(S(=O)(=O)F)cc1 [4-AMINOETHYLBENZENESULFONYL FLUORIDE HYDROCHLORIDE]
[1]
  AC50: 0.251 µM (inconclusive)

## O=NN(CCO)CCO [N-NITROSODOETHANOLAMINE]
[1]
  AC50: 3.16 µM (inconclusive)
